Assay results published in US20060074046A1, “Oral administration of decitabine salt” (priority 2004, published 2006).
≈ marks a conversion by molar mass, not a printed value. Counter-ions that a name gives are not always drawn. Like-named read-outs stand apart in the source and are kept apart here.

Tests used:
[1] = 0.05 M phosphate buffer; for Potency Found (%) At pH 2.5 / Potency Found (%) At pH 7.0: 0.5 mg/mL, ambient
[2] = 1 min
[3] = Hygroscopicity, weight gain in 1 week at relative humidity; format: physicochemical; conditions: solid state
physchem = conditions: water, thermodynamic from solid, Total Solubility

SMILES: Nc1ncn([C@@H]2O[C@H](CO)[C@@H](O)[C@H]2O)c(=O)n1 [Compound 2, 5-azacytidine, reference compound]
- Potency Found (%) At pH 2.5 ([1]; t = 0.5 hr): 73.62%
- Potency Found (%) At pH 7.0 ([1]; t = 0.5 hr): 86.74%
- Potency Found (%) At pH 7.0 ([1]; t = 24 hr): 79.43%
- Total Solubility [2]: 14 mg/mL
- Hygroscopicity-% weight gain in 1 week ([3]; 56% RH): 1.74%
- Hygroscopicity-% weight gain in 1 week ([3]; 98% RH): 5.61%
- solubility at 1 min (physchem): 14 mg/mL (≈ 57.3 mM)

SMILES: Nc1ncn([C@@H]2O[C@H](CO)C(O)C2O)c(=O)n1 (some centres unmarked) [Compound 19, azacitidine mesylate]
- solution stability compared with the free base ([1]; pH 7.0 and 2.5): slightly less than the free azacitidine base
- Potency Found (%) At pH 2.5 ([1]; t = 0.5 hr): 64.56%
- Potency Found (%) At pH 7.0 ([1]; t = 0.5 hr): 77.47%
- Potency Found (%) At pH 2.5 ([1]; t = 24 hr): 49.94%
- Potency Found (%) At pH 7.0 ([1]; t = 24 hr): 65.79%
- Total Solubility [2]: 205 mg/mL
- Hygroscopicity-% weight gain in 1 week ([3]; 56% RH): 6.05%
- Hygroscopicity-% weight gain in 1 week ([3]; 98% RH): 38.11%
- solubility at 1 min (physchem): 205 mg/mL
- solubility at 1 min (physchem; decitabine or azacitidine free base equivalents): 137 mg/mL
